From patent publication US5707815A, “Mammalian monocyte chemoattractant protein receptors and assays using them” (Regents of the University of California, priority 1995, dated 1998)
“Also recorded” adds a separate entry of the source.

What was measured:
monocyte = details: Yoshimura, J. Immunol. 145:292-97 (1990); cited from earlier work
[1] = tested on: untransfected or pcDNA3 transfected 293 cell controls; experiment: cAMP formation in untransfected or pcDNA3 transfected 293 cell controls; type: cell-based, human; details: cells without receptor
MCP-1RB receptor = experiment: Intracellular calcium mobilization (indo-1) in stably transfected MCP-1RB/293 cells; type: cell-based, human; details: MCP-1RB/293 cells
Protocol: Calcium mobilization in 293 cells was then investigated. Transfected HEK-293 cells were grown until confluent, trypsinized briefly, washed with phosphate buffered saline containing 1 mg/ml BSA (PBS-BSA), and resuspended in serum-free MEM-EBSS supplemented with 1 mg/ml BSA and 10 mM HEPES (pH 7.0) at a density of 2×10^7 cells/ml. The cells were incubated in the dark at 37° C. for 20 min in the presence of 5-10 μg/ml indo-1 AM (Molecular Probes, Inc., Eugene, Oreg.). Nine volumes of PGS-BSA were added, and the cells were incubated for an additional 10 min at 37° C., pelleted by centrifugation, and washed twice with 50 ml of the PBS-BSA solution. Washed, indo-1-loaded cells were then resuspended in Hank's Balanced Salt Solution (1.3 mM Ca^2+) supplemented with 1 mg/ml BSA (HBS-BSA) at a density of approximately 0.5×10^6 cells/ml at room temperature. To measure intracellular calcium ([Ca^2+ ]i), 0.5 ml of the cell suspension was placed in a quartz cuvette in a Hitachi F-2000 fluorescence spectrophotometer. […] Intracellular calcium was measured by excitation at 350 nm and fluorescence emission detection at 490 nm (F1) and 410 nm (F2) wavelengths. The [Ca^2+ ]i was estimated by comparing the 490/410 fluorescence ratio after agonist application (R) to that of calibration ratios measured at the end of each run, according to the equation:
[Ca^2+ ]i =Kd ×[(R--Rmin)/(Rmax
where Rmax and Rmin represent the fluorescence ratio under saturating (1.3 mM Ca^2+) and nominally free (10 mM EGTA, Sigma Chemical Co.) calcium conditions, Kd is the dissociation constant of calcium for indo-1, R is the fluorescence ratio, and Sf2/Sb2 is the fluorescence ratio of free and bound indo-1 dye at 410 nm. See Thomas, AP and Delaville, F (1991) in Cellular Calcium, a Practical Approach, Oxford Univ. Press, pp. 1-54.
To quantirate calcium responses, MCP-1 dose response curves were generated in each experiment and the results were expressed as a percent of the maximum calcium signal (at 300 nM MCP-1) measured in that experiment. The changes in [Ca^2+ ]i levels in response to each concentration of agonist were determined by subtracting the baseline from peak [Ca^2+ ]i levels, which were determined by averaging 5 seconds of data prior to agonist addition and surrounding the peak response, respectively. In experiments done to determine the role of extracellular calcium, 3 mM EGTA was added 60-90 seconds prior to MCP-1. […] All experiments were performed at room temperature.
Inhibition of MCP-1RB receptor activation by bordetella pertussis toxin was investigated. Pertussis toxin (List Biological Labs, Inc., Campbell, Calif.) was dissolved in 0.01M sodium phosphate, pH 7.0, 0.05M sodium chloride and diluted into normal serum containing media at final concentrations of 0.1 ng/ml to 100 ng/ml, and incubated with cells overnight (14-16 h) at 37° C. The conditions of the Pertussis toxin treatment of the 293 cells were identical for calcium fluorimetric and adenylyl cyclase experiments. In the adenylyl cyclase experiments, the Pertussis toxin was added at the same time as [^3 H]adenine.
Dose response curves generated in the calcium fluorimetric and adenylyl cyclase inhibition assays were fit by a nonlinear least squares program to the logistic equation:
Effect=max effect/[1+(EC50 /(agonist)^n)]
where n and EC50 represent the Hill coefficient and the agonist concentration that elicited a half-maximal response, respectively, and were derived from the fitted curve. Curve fitting was done with the computer program "Prism" (by Graph Pad, San Diego, Calif.). Results represent the mean ±SE. The 95% confidence intervals (CI) of the EC50 and IC50 values, when given, were calculated from the log EC50 and IC50 values, respectively.

MIP-1α/RANTES receptor = experiment: Ca45 efflux assay in Xenopus oocytes, MIP-1α/RANTES receptor examined in parallel; type: cell-based
[2] = tested on: undifferentiated human HL-60 cells; experiment: MCP-1 induced calcium flux in HL-60 cells; type: cell-based; details: undifferentiated HL-60 cells
Protocol: (§1) Because monocytes are difficult to isolate in usable quantity and express less than 2000 high affinity MCP-1 binding sites per cell, a cultured cell line that responded well to MCP-1 had to be identified. Using the calcium effiux assay as described in Vu, Cell 64:1057-68(1991), MCP-1 induced calcium fluxes in various cell lines were measured. […] In contrast, a dose-dependent calcium flux was detected in MM6 cells, with half maximal stimulation at 4nM MCP-1.

[3] = tested on: human erythroleukemia (HEL) cells; experiment: MCP-1 induced calcium flux in HEL cells; type: cell-based
Protocol: as §1

MM6 cells = experiment: MCP-1 induced calcium flux in MM6 cells (calcium efflux assay); type: cell-based, human
Protocol: as §1

For “monocyte chemoattractant protein-1 [MCP-1]”, the “EC50 for monocyte chemotaxis” value (monocyte) is given as “subnanomolar”, the “effect on cAMP formation” value [1] is given as “neither stimulated nor inhibited” and the “concentration giving small but reproducible calcium signals” value (MCP-1RB receptor) is given as 100 pM. For the same substance, the “homologous desensitization to a second challenge with MCP-1” value (MCP-1RB receptor) was “refractory to activation by a second challenge; also recorded: desensitized the cells to a second addition”, the “time to peak of calcium transients after addition” value (MCP-1RB receptor) was 4 to 8 s and the EC50 (MCP-1RB receptor; average of four full dose-response curves) was 2 to 4 nM. For the same substance, the “receptor signaling in response to chemokine” value (MIP-1α/RANTES receptor) was “not to MCP-1”, the “MCP-1 induced calcium flux” value [2] was “No calcium flux was detected” and the “MCP-1 induced calcium flux” value [3] was “No calcium flux was detected”. For the same substance, the EC50 (MM6 cells; dose-dependent calcium flux, read-out: half maximal stimulation of calcium flux) was 4 nM and the “effect of prior exposure to the chemokine on the calcium response to the other chemokine” value (MM6 cells; label = chemokine given first, MCP-1 versus RANTES (or MIP-1α)) was “partially blocked”.
